Laboratory results published in patent publication US11571467B2, “Dodecafluoropentane emulsion as a stroke and ischemia therapy” (The Board of Trustees of the University of Arkansas, priority 2011, dated 2023).
Like-named read-outs stand apart in the source and are kept apart here.

Key:
[1] = in the liquid PFC; cited from earlier work
[2] = Pharmacokinetic study, DDFP blood levels by headspace GC-MS; assay type: in vivo, New Zealand White rabbits
Description: Pharmacokinetic study. In alert New Zealand White rabbits (5.1±0.5 kg; N=8), cannulae were placed in a vein of one ear and in an artery of the other ear. After intravenous injection of DDFPe (0.6 ml/kg in a 2% w/v emulsion) arterial blood samples were taken over a period of 4 to 7 h. The dose of DDFPe was repeated every 90 min in four animals. Samples were stored at −20° C. until they were analyzed for DDFP content by a headspace gas chromatograph-mass spectrometer (Varian TSQ).
Because infarct volumes were not normally distributed, ranks of infarct volume were analyzed with PROC GLM of SAS software (Kruskal-Wallis equivalent). Blood levels of DDFP were analyzed for exponential curve fit and exponential decay time constant using KaleidaGraph software v4.01 (2005). Values are given as mean±standard error.

[3] = cited from earlier work

FC1(F)C(F)(F)C(F)(F)C2(F)C(F)(F)C(F)(F)C(F)(F)C(F)(F)C2(F)C1(F)F (stereo not drawn) [PFD, perfluorodecalin]
solubility of oxygen [1]: 42 % v/v

FC(F)(F)C(F)(F)C(F)(F)C(F)(F)C(F)(F)C(F)(F)C(F)(F)C(F)(F)Br [PFOB, perfluorooctylbromide]
solubility of oxygen [1]: 50 % v/v

FC(F)(F)C(F)(F)C(F)(F)C(F)(F)C(F)(F)F [DDFP, dodecafluoropentane]
half-life ([2]; New Zealand White, rabbit, arterial whole blood, intravenous, FIG. 15, 0.6 ml/kg of 2% w/v emulsion, read-out: half-life in blood, representative rabbit): 1.68 min | clearance ([2]; New Zealand White, rabbit, arterial whole blood, single DDFPe dose of 0.6 ml/kg IV): 78.5 ± 24.9 mL/min/kg | half-life ([2]; New Zealand White, rabbit, arterial whole blood, single DDFPe dose of 0.6 ml/kg IV, N=4, read-out: mean half-life in blood): 1.45 ± 0.17 min | time for blood level to return to the baseline level after each dose ([2]; multiple doses at 90 min intervals): less than 30 min | time for blood levels to reach non-detectable levels ([2]; single DDFPe dose of 0.6 ml/kg IV): ≤ 30 min | accumulation in blood ([2]; up to five doses of 0.6 ml/kg at 90 min intervals): no sign of accumulation | half-life in blood ([3]; humans, previous study): 2.2 ± 1.2 min | half-life in the blood ([3]; intravenous administration): 2 min | DDFP cleared through the lungs / recovered from expired air ([3]; within 2 hours after single intravenous dose): 99% | solubility of oxygen [1]: 80 % v/v
